How the values were obtained:
Type in all cases: cell-based
DU145 = assay: Chemoresistance: growth under adhesion with etoposide, p21 cell cycle arrest, DU145; details: FIG. 2B
Procedure: (§1) Eliglustat alone has no effect.
(§2) The cells were treated with etoposide at a concentration ranging between 10 and 40 μM for 12-16 hours.
(§3) The p21 levels were determined by immunoblotting as cycle arrest index.

LnCap = assay: Chemoresistance: growth under adhesion with etoposide, p21 cell cycle arrest, LnCap; details: FIG. 2B
Procedure: as §1, §2, §3

[1] = system: lines expressing an oncogene belonging to the GOLPH3 cluster; assay: Growth under adhesion to the matrix and absence of stress; details: lines expressing a GOLPH3 cluster oncogene; FIG. 2A1 bottom series
Procedure: (§4) The growth of tumour lines was evaluated under different experimental conditions. 12 tumour lines, divided into six pairs derived from six different types of tumour, were used. […] The growth of the lines was observed under 3 experimental conditions: 1) absence of anchorage to the matrix; 2) exposure to chemotherapy agents; 3) undisturbed growth under adhesion to the matrix.
(§5) Growth under conditions of adhesion to the matrix and absence of stress (bottom series, black) of the lines expressing an oncogene belonging to the GOLPH3 cluster is not inhibited by miglustat. Inhibition of GSL synthesis was about 70% (at 50 micromolar miglustat).
(§6) GCS enzyme inhibitors such as miglustat, eliglustat and N-[(1R,2R)-2-(2,3-dihydro-1,4-benzodioxin-6-yl)-2-hydroxy-1-(1-pyrrolidinylmethyl)ethyl]-nonanamide (Genz-123346), or P-gp inhibitors such as zosuquidar, were used at two or three different concentrations, depending on the type of dose, to blockade glycosphingolipid biosynthesis in various tumour cells. For the growth assays, new media supplemented with the medicaments were added every three days.
(§7) • 1. Growth in the absence of anchorage (anchorage-independent) • 2. Growth of isolated cell clones (clonogenic analysis) • 3. Growth under adhesion (under adhesion).
(§8) Both the anchorage-independent and clonogenic growth tests were conducted as described previously in Rizzo et al., EMBOJ, 2021. […]

[2] = system: prostate, colon and liver tumour lines expressing an oncogene belonging to the GOLPH3 cluster; assay: Growth under anchorage-independent conditions, lines expressing a GOLPH3 cluster oncogene; details: concentrations 0 to 50 micromolar, FIG. 2A1 top series
Procedure: as §4, §5, §6, §7, §8

[3] = system: tumour lines deriving from the same tumour type which do not express GOLPH3; assay: Growth under anchorage-independent conditions, lines not expressing GOLPH3; details: 0 to 50 micromolar; lines of same tumour type not expressing GOLPH3; FIG. 2A1 middle series
Procedure: as §4, §5, §6, §7, §8

GSL synthesis = assay: Glycosphingolipid metabolism (radiolabelling of cell sphingosine, TLC); details: at 50 micromolar miglustat
Source text: To analyse the glycosphingolipid metabolites we used a method based on radiolabelling of cell sphingosine followed by extraction of metabolites and separation by thin-layer chromatography (TLC) as previously described in Rizzo et al., EMOJ, 2021.

CCCCCCCC(=O)N[C@H](CN1CCCC1)[C@H](O)c1ccc2c(c1)OCCO2 [eliglustat]
effect of co-treatment on resistance to etoposide (DU145; DU145, co-treatment with etoposide): loses said resistance | effect of inhibitor alone (DU145; without etoposide): no effect | effect of co-treatment on etoposide-induced cell cycle arrest (LnCap; co-treatment with etoposide): does not modify said situation

COc1cc([C@@H]2c3cc4c(cc3[C@@H](O[C@@H]3O[C@@H]5CO[C@@H](C)O[C@H]5[C@H](O)[C@H]3O)[C@H]3COC(=O)[C@H]23)OCO4)cc(OC)c1O [etoposide]
response to etoposide alone (chemoresistance) (DU145; DU145, expressing a GOLPH3 cluster oncogene): resistant | cell cycle arrest (p21 synthesis), etoposide alone (LnCap; not expressing a GOLPH3 cluster oncogene): cell cycle arrest (strong increase in p21 synthesis)

CCCCN1C[C@H](O)[C@@H](O)[C@H](O)[C@H]1CO [miglustat]
growth under conditions of adhesion to the matrix and absence of stress [1]: not inhibited | growth under anchorage-independent conditions [2]: inhibited | growth under anchorage-independent conditions [3]: not inhibited | inhibition at 50 µM (GSL synthesis): ~70%
